According to patent US20250195521A1 (Revolution Medicines, Inc., priority 2020, published 2025):

Experiments:
[1] = target: NRAS G12C binding to BRAF RBD (Homo sapiens (Human), UniProt P01111+P62937, G12C); experiment: Ras-Raf disruption/FRET/MOA assay, NRAS G12C; assay type: biochemical
From the text: (§1) Note—The following protocol describes a procedure for monitoring disruption of K-Ras G12C(GMP-PNP) binding to BRAF^RBD by a compound of the invention. This protocol may also be executed substituting other Ras proteins or nucleotides.
(§2) The purpose of this biochemical assay was to measure the ability of test compounds to facilitate ternary complex formation between a nucleotide-loaded K-Ras isoform and Cyclophilin A; the resulting ternary complex disrupts binding to a BRAF^RBD construct, inhibiting K-Ras signaling through a RAF effector. Data is reported as IC50 values.
(§3) Compound was present in plate wells as a 10-point 3-fold dilution series starting at a final concentration of 30 μM. After incubation at 25° C. for 3 hours, a mixture of Anti-His Eu—W1024 and anti-GST allophycocyanin was then added to assay sample wells at final concentrations of 10 nM and 50 nM, respectively, and the reaction incubated for an additional 1.5 hours. […] Compounds that facilitate disruption of a K-Ras: RAF complex were identified as those eliciting a decrease in the TR-FRET ratio relative to DMSO control wells.

[2] = system: K-Ras G12C (NCI-H358 cells); experiment: Potency assay: pERK in NCI-H358 cells; assay type: cell-based, human; conditions: Homo sapiens; NCI-H358 cells, 4 hours; read-out: pERK EC50 (H358 KRAS G12C)
Procedure, shortened: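 Cells plated the day before were exposed for 4 h at 37° C, 5% CO2 to a 10-point, 3-fold DMSO dilution series (10 mM top stock), in duplicate. Phospho-ERK was read by AlphaLISA SureFire Ultra or by In-Cell Western with DRAQ5 DNA stain, and IC50 came from a 4-parameter sigmoidal fit.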

[3] = target: K-Ras G12C(GMP-PNP) binding to BRAF RBD (Homo sapiens (Human), UniProt P01116+P62937, G12C); experiment: Disruption of BRAF RBD interaction with K-Ras (FRET / MOA assay), K-Ras G12C; assay type: biochemical; conditions: read-out: KRAS G12C FRET IC50
Sequence of K-Ras G12C(GMP-PNP) binding to BRAF RBD (P01116 other isoform, or with tags, fused parts or gaps G12C): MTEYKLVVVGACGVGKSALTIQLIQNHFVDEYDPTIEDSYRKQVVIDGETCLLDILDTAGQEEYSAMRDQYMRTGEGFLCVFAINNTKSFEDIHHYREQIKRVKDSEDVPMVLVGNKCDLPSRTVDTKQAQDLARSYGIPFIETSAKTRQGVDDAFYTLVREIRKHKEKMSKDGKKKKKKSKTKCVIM
Sequence of K-Ras G12C(GMP-PNP) binding to BRAF RBD (P62937 whole entry): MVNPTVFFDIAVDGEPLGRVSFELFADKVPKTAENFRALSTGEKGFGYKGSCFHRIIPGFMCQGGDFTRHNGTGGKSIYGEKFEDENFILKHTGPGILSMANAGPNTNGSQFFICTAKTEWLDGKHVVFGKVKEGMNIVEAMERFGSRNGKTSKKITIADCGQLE
Procedure, shortened: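 Cpd 10-pt 3-fold dilution, top 30 μM final; Ras/CypA/BRAF RBD mix 3 h, 25° C. Add anti-His Eu-W1024 10 nM + anti-GST APC 50 nM final, 1.5 h. Readout TR-FRET ratio decrease vs DMSO → IC50.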

[4] = target: KRAS Q61H binding to BRAF RBD (Homo sapiens (Human), UniProt P01116+P62937, Q61H); experiment: Ras-Raf disruption/FRET/MOA assay, KRAS Q61H; assay type: biochemical
Sequence of KRAS Q61H binding to BRAF RBD (P01116 other isoform, or with tags, fused parts or gaps Q61H): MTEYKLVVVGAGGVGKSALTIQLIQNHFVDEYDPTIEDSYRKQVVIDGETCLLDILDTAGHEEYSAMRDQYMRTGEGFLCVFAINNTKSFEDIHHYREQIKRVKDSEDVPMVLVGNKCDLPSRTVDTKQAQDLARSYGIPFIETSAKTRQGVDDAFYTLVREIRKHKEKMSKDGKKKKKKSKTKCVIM
Sequence of KRAS Q61H binding to BRAF RBD (P62937 whole entry, the tested form may be a part): as the sequence (P62937 whole entry) above
From the text: (§4) Disruption of B-Raf Ras-binding Domain (BRAF^RBD) Interaction with K-Ras by Compounds of the Invention (also called a FRET assay or an MOA assay)
as §1, §2
as §3, with “In assay buffer containing 25 mM HEPES pH 7.3, 0.002% Tween20, 0.1% BSA, 100 mM NaCl and 5 mM MgCl2, tagless Cyclophilin A, His6-K-Ras-GMPPNP, and GST-BRAF^RBD were combined in a 384-well assay plate at final concentrations of 25 μM, 12.5 nM and 50 nM, respectively. Compound was” for “Compound was”

[5] = target: NRAS Q61K binding to BRAF RBD (Homo sapiens (Human), UniProt P01111+P62937, Q61K); experiment: Ras-Raf disruption/FRET/MOA assay, NRAS Q61K; assay type: biochemical
Sequence of NRAS Q61K binding to BRAF RBD (P01111 whole entry Q61K): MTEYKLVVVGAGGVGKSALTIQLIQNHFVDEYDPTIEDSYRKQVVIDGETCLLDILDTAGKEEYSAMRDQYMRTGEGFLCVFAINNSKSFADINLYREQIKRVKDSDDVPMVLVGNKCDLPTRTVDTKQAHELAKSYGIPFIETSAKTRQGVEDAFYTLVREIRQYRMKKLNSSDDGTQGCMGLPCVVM
Sequence of NRAS Q61K binding to BRAF RBD (P62937 whole entry): as the sequence (P62937 whole entry) above
From the text: as §4, §1, §2
as §3, with “In assay buffer containing 25 mM HEPES pH 7.3, 0.002% Tween20, 0.1% BSA, 100 mM NaCl and 5 mM MgCl2, tagless Cyclophilin A, His6-K-Ras-GMPPNP, and GST-BRAF^RBD were combined in a 384-well assay plate at final concentrations of 25 μM, 12.5 nM and 50 nM, respectively. Compound was” for “Compound was”

NCI-H358 (K-Ras G12C) = experiment: CellTiter-Glo cell viability assay, NCI-H358; assay type: cell-based, human; conditions: Homo sapiens, NCI-H358, 120 h, 5-day treatment; read-out: H358 Cell Viability assay data (K-Ras G12C, IC50)
Procedure, shortened: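 NCI-H358 (K-Ras G12C) cells treated with compound dispensed directly into plates. CellTiter-Glo luminescence read on day 5 after ~30 min equilibration to room temperature. Signal normalised to DMSO average ×100, then fitted with a four-parameter logistic model.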

[6] = target: NRAS WT binding to BRAF RBD (Homo sapiens (Human), UniProt P01111+P62937); experiment: Ras-Raf disruption/FRET/MOA assay, NRAS WT; assay type: biochemical
Sequence of NRAS WT binding to BRAF RBD (P01111 whole entry): as the sequence (P01111 whole entry Q61K) above, with K61Q counted along it
Sequence of NRAS WT binding to BRAF RBD (P62937 whole entry): as the sequence (P62937 whole entry) above
From the text: as §4, §1, §2
as §3, with “In assay buffer containing 25 mM HEPES pH 7.3, 0.002% Tween20, 0.1% BSA, 100 mM NaCl and 5 mM MgCl2, tagless Cyclophilin A, His6-K-Ras-GMPPNP, and GST-BRAF^RBD were combined in a 384-well assay plate at final concentrations of 25 μM, 12.5 nM and 50 nM, respectively. Compound was” for “Compound was”

[7] = target: KRAS G13D binding to BRAF RBD (Homo sapiens (Human), UniProt P01116+P62937, G13D); experiment: Ras-Raf disruption/FRET/MOA assay, KRAS G13D; assay type: biochemical
Sequence of KRAS G13D binding to BRAF RBD (P01116 other isoform, or with tags, fused parts or gaps G13D): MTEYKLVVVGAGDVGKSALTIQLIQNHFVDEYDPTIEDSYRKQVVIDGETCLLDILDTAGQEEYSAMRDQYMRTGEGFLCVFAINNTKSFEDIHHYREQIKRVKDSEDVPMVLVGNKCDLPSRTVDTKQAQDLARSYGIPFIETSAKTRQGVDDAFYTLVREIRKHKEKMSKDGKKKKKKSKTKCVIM
Sequence of KRAS G13D binding to BRAF RBD (P62937 whole entry): as the sequence (P62937 whole entry) above
From the text: as §1, §2, §3

[8] = target: NRAS Q61R binding to BRAF RBD (Homo sapiens (Human), UniProt P01111+P62937, Q61R); experiment: Ras-Raf disruption/FRET/MOA assay, NRAS Q61R; assay type: biochemical
Sequence of NRAS Q61R binding to BRAF RBD (P01111 whole entry Q61R): as the sequence (P01111 whole entry Q61K) above, with K61R counted along it
Sequence of NRAS Q61R binding to BRAF RBD (P62937 whole entry): as the sequence (P62937 whole entry) above
From the text: as §4, §1, §2
as §3, with “In assay buffer containing 25 mM HEPES pH 7.3, 0.002% Tween20, 0.1% BSA, 100 mM NaCl and 5 mM MgCl2, tagless Cyclophilin A, His6-K-Ras-GMPPNP, and GST-BRAF^RBD were combined in a 384-well assay plate at final concentrations of 25 μM, 12.5 nM and 50 nM, respectively. Compound was” for “Compound was”

Sequence of NRAS G12C binding to BRAF RBD (P01111 whole entry G12C): as the sequence (P01111 whole entry Q61K) above, with G12C, K61Q counted along it
Sequence of NRAS G12C binding to BRAF RBD (P62937 whole entry): as the sequence (P62937 whole entry) above

Structure (SMILES)	IC50 [1] [nM]	EC50 [2] [nM]	IC50 [3] [nM]	IC50 [4] [nM]	IC50 [5] [nM]	IC50 (NCI-H358 (K-Ras G12C)) [nM]	IC50 [6] [nM]	IC50 [7] [nM]	IC50 [8] [nM]
C=CC(=O)N1CC[C@H](C(=O)N(C)[C@H](C(=O)N[C@H]2Cc3cccc(c3)-c3ccc4c(c3)c(c(-c3cccnc3[C@H](C)OC)n4CC)CC(C)(C)COC(=O)[C@@H]3CCCN(N3)C2=O)[C@H](C)C(F)(F)F)C1 (atropisomer, axis not shown) [Compound A641]	100 to 1000	< 5000	100 to 1000	1000 to 10000	1000 to 10000	10 to 100	1000 to 10000	1000 to 10000	1000 to 10000
CCn1c(-c2cncnc2)c2c3cc(ccc31)-c1csc(n1)C[C@H](NC(=O)[C@H](C(C)C)N(C)C(=O)[C@H]1CCN(S(=O)(=O)CC)C1)C(=O)N1CCC[C@H](N1)C(=O)OCC(C)(C)C2 [Compound A170]	1000 to 10000		1000 to 10000	> 10000	> 10000	100 to 1000	> 10000	> 10000	> 10000
CCn1c(-c2cccnc2[C@H](C)OC)c2c3cc(ccc31)-c1csc(n1)C[C@H](NC(=O)C1(COC3CN(C(=O)C#CC(C)(C)N4CCC4)C3)CC1)C(=O)N1CCC[C@H](N1)C(=O)OCC(C)(C)C2 [Compound A362]	10 to 100		10 to 100	1000 to 10000	> 10000	10 to 100	1000 to 10000	> 10000	> 10000
CCn1c(-c2cccnc2[C@H](C)OC)c2c3cc(ccc31)-c1cccc(c1)C[C@H](NC(=O)[C@H](C(C)C)N1CC[C@]3(CCN(C(=O)C#CC(C)(C)N4CCC4)C3)C1=O)C(=O)N1CCC[C@H](N1)C(=O)OCC(C)(C)C2 [Compound A365]	< 10		< 10	100 to 1000	1000 to 10000	< 10	1000 to 10000	1000 to 10000	1000 to 10000
C=CC(=O)N1CC[C@H](C(=O)N(C)[C@H](C(=O)N[C@H]2CC3CN(CCO3)c3ccc4c(c3)c(c(-c3cccnc3[C@H](C)OC)n4CC)CC(C)(C)COC(=O)[C@@H]3CCCN(N3)C2=O)C(C)C)C1 [Compound A378]	100 to 1000	< 5000		> 10000	> 10000	100 to 1000	1000 to 10000	> 10000	> 10000
C=CC(=O)N1CC[C@H](C(=O)C2CC[C@H](C)[C@H]2C(=O)N[C@H]2Cc3cccc(c3)-c3ccc4c(c3)c(c(-c3cccnc3[C@H](C)OC)n4CC)CC(C)(C)COC(=O)[C@@H]3CCCN(N3)C2=O)C1 (some centres unmarked) [Compound A494]	100 to 1000	< 5000		100 to 1000	1000 to 10000		1000 to 10000	> 10000	1000 to 10000
C=CC(=O)N(C)CCN1CCN(C(=O)N(C)[C@H](C(=O)N[C@H]2C[n+]3cccc(c3)-c3ccc4c(c3)c(c(-c3cccnc3[C@H](C)OC)n4CC)CC(C)(C)COC(=O)[C@@H]3CCCN(N3)C2=O)C(C)C)CC1 [Compound A539]	100 to 1000		100 to 1000	100 to 1000	100 to 1000	100 to 1000	100 to 1000	1000 to 10000	100 to 1000

Now from value to compound:

IC50 [1] [nM]	EC50 [2] [nM]	IC50 [3] [nM]	IC50 [4] [nM]	IC50 [5] [nM]	IC50 (NCI-H358 (K-Ras G12C)) [nM]	IC50 [6] [nM]	IC50 [7] [nM]	IC50 [8] [nM]	Structure (SMILES)
10 to 100	< 5000	10 to 100	> 10000	> 10000	10 to 100	> 10000	> 10000	> 10000	CCn1c(-c2cccnc2[C@H](C)OC)c2c3cc(ccc31)-c1cnc(o1)C[C@H](NC(=O)[C@@H](COC1CN(C(=O)C#CC(C)(C)N(C)C)C1)C(C)C)C(=O)N1CCC[C@H](N1)C(=O)OCCC2 (atropisomer, axis not shown) [Compound A649]
< 10	< 5000	< 10	100 to 1000	100 to 1000	< 10	100 to 1000	1000 to 10000	1000 to 10000	CC[C@H](COC1CN(C(=O)C#CC(C)(C)N(C)C)C1)C(=O)N[C@H]1Cc2nc(cs2)-c2ccc3c(c2)c(c(-c2cccnc2[C@H](C)OC)n3CC)CC(C)(C)COC(=O)[C@@H]2CCCN(N2)C1=O (atropisomer, axis not shown) [Compound A660]
< 10	< 5000	< 10	1000 to 10000	1000 to 10000	< 10	1000 to 10000	> 10000	> 10000	CC[C@@H](COC1CN(C(=O)C#CC(C)(C)N(C)C)C1)C(=O)N[C@H]1Cc2nc(cs2)-c2ccc3c(c2)c(c(-c2cccnc2[C@H](C)OC)n3CC)CC(C)(C)COC(=O)[C@@H]2CCCN(N2)C1=O (atropisomer, axis not shown) [Compound A705]
10 to 100	< 5000	10 to 100	1000 to 10000	> 10000	< 10	> 10000	> 10000	> 10000	CCn1c(-c2cccnc2[C@H](C)OC)c2c3cc(ccc31)-c1cccc(c1)C[C@H](NC(=O)[C@H](C(C)C)N1CC[C@@]3(CCN(C(=O)C#CC(C)(C)N4CCC4)C3)C1=O)C(=O)N1CCC[C@H](N1)C(=O)OCC(C)(C)C2 (atropisomer, axis not shown) [Compound A733]
100 to 1000	< 5000	100 to 1000	10 to 100	1000 to 10000	100 to 1000	100 to 1000	1000 to 10000	1000 to 10000	C=CC(=O)N1CC[C@]2(C1)OCN([C@H](C(=O)N[C@H]1Cc3cc(cc(C(F)(F)F)c3)-c3ccc4c(c3)c(c(-c3cccnc3[C@H](C)OC)n4CC)CC(C)(C)COC(=O)[C@@H]3CCCN(N3)C1=O)C(C)C)C2=O [Compound A557]
100 to 1000	< 5000	100 to 1000	100 to 1000	100 to 1000	100 to 1000	100 to 1000	1000 to 10000	100 to 1000	C=CC(=O)N(C)CCN1CCN(C(=O)N(C)[C@H](C(=O)N[C@H]2CN3CCC=C(C3)c3ccc4c(c3)c(c(-c3cccnc3[C@H](C)OC)n4CC)CC(C)(C)COC(=O)[C@@H]3CCCN(N3)C2=O)C(C)C)C[C@@H]1C [Compound A570]
100 to 1000	< 5000	100 to 1000	1000 to 10000	1000 to 10000	100 to 1000	1000 to 10000	1000 to 10000	1000 to 10000	C=CC(=O)C1CC[C@H](C(=O)N(C)[C@H](C(=O)N[C@H]2Cc3cccc(c3)-c3ccc4c(c3)c(c(-c3cccnc3[C@H](C)OC)n4CC)CC(C)(C)COC(=O)[C@@H]3CCCN(N3)C2=O)C(C)(C)F)C1 (some centres unmarked) [Compound A693]
